The source of these data is patent US20100075965A1, “PI3 KINASE INHIBITORS AND METHODS OF THEIR USE” (Novartis AG, priority 2006, published 2010).

The target in assay [1] is T1, human PI3Kγ (GST-p110γ) (Homo sapiens, UniProt P48736).
T1 construct: Residues 38-1102 of human PI3Kγ are subcloned into the BamH1 and EcoR1 sites of the transfer vector pAcG2T; made in house; host or cells: Sf9 (Spodoptera frugiperda) insect cells, baculovirus
In words: PI3K scintillation proximity kinase assay, gamma isoform. Conditions: PI3 kinase isoform gamma. The class given is biochemical. The procedure:
(§1) Activity of compounds in Table 4, expressed as Ki the dissociation constant for inhibition binding, were determined using the following test procedures.
(§2) Baculovirus expressing different fragments of PI3Kγ fused to GST have been previously described by Stoyanova, S., Bulgarelli-Leva, G., Kirsch, C., Hanck, T., Klinger, R., Wetzker, R., Wymann, M. P. (1997) Lipid- and protein kinase activities of G protein-coupled PI 3-kinase gamma: structure-activity analysis and interactions with wortmannin. Biochem. J., 324:489. Residues 38-1102 of human PI3Kγ are subcloned into the BamH1 and EcoR1 sites of the transfer vector pAcG2T (Pharmingen) to create a GST-P13Kγ lacking the first 37 residues of PI3Kγ. To express the recombinant protein, Sf9 (Spodoptera frugiperda 9) insect cells are routinely maintained at densities between 3×10^5 and 3×10^6 cells/ml in serum containing TNMFH medium (Sigma). Sf9 cells, at a density of 2×10^6 are infected with human GST-PI3γΔ34 baculovirus at a multiplicity of infection (m.o.i.) of 1 for 72 hours. The infected cells are harvested by centrifugation at 1400 g for 4 minutes at 4° C. and the cell pellets are frozen at −80° C. Both Sf9 and Sf21 cells work equally well. […] Cell lysate (supernatant) is added (usually as 50 ml lysate to 1 ml GST resin in 50 ml tubes) and gently rotated on a mixer at 4° C. for 2-3 hours. The unbound flow through sample is collected by centrifugation at 1000 g for 5 minutes at 4° C. using a DENLEY™ centrifuge. The 1 ml GST resin containing bound material is transferred to a 15 ml FALCON™ centrifuge tube for subsequent washing and elution steps. Firstly a series of 3 cycles of washings (mixing by gentle inversion) is performed with 15 ml ice cold wash Buffer A (50 mM Tris-HCl pH 7.5, 1% Triton X-100, 2 mM DTT) interspersed with centrifugation at 1000 g for 5 minutes at 4° C. A final single wash step is performed with 15 ml ice cold wash Buffer B (50 mM Tris-HCl pH 7.5, 2 mM DTT) and then centrifuged at 1000 g for 5 minutes at 4° C. The washed GST resin is finally eluted with 4 cycles of 1 ml ice cold elution buffer (50 mM Tris-HCl pH 7.5, 10 mM reduced glutathione, 2 mM DTT, 150 mM NaCl, 1 mM NaF, 50% ethylene glycol and protease inhibitors) interspersed with centrifugation at 1000 g for 5 minutes at 4° C. Samples are aliquoted and stored at −20° C. The isoforms in Table 4 were similarly purified.
(§3) An in vitro kinase assay was established that measures the transfer of the terminal phosphate of adenosine triphosphate to phosphatidylinositol. The kinase reaction is performed in a white 96 well microtitre plate as a Scintillation Proximity Assay. […] The plate is incubated at room temperature for 60 minutes and the reaction terminated by the adding 150 μl of WGA-bead stop solution (40 mM Tris, 200 mM NaCl, 2 mM EGTA, 1.3 mM ethylene diamine tetraacetic acid (EDTA), 2.6 μM ATP and 0.5 mg of Wheat Germ Agglutinin-SPA beads (Amersham Biosciences) to each well. The plate is sealed, incubated at room temperature for 60 minutes, centrifuged at 1200 rpm and then counted for 1 minute using a scintillation counter. Total activity is determined by adding 10 μl of 5% dimethylsulphoxide (DMSO) and non-specific activity is determined by adding 10 μl 50 mM EDTA in place of the test compound.

The target in assay [2] is T2, PI3 kinase isoform alpha (Homo sapiens, UniProt P42336).
T2 construct: made in house
T2 sequence (P42336 whole entry, canonical isoform): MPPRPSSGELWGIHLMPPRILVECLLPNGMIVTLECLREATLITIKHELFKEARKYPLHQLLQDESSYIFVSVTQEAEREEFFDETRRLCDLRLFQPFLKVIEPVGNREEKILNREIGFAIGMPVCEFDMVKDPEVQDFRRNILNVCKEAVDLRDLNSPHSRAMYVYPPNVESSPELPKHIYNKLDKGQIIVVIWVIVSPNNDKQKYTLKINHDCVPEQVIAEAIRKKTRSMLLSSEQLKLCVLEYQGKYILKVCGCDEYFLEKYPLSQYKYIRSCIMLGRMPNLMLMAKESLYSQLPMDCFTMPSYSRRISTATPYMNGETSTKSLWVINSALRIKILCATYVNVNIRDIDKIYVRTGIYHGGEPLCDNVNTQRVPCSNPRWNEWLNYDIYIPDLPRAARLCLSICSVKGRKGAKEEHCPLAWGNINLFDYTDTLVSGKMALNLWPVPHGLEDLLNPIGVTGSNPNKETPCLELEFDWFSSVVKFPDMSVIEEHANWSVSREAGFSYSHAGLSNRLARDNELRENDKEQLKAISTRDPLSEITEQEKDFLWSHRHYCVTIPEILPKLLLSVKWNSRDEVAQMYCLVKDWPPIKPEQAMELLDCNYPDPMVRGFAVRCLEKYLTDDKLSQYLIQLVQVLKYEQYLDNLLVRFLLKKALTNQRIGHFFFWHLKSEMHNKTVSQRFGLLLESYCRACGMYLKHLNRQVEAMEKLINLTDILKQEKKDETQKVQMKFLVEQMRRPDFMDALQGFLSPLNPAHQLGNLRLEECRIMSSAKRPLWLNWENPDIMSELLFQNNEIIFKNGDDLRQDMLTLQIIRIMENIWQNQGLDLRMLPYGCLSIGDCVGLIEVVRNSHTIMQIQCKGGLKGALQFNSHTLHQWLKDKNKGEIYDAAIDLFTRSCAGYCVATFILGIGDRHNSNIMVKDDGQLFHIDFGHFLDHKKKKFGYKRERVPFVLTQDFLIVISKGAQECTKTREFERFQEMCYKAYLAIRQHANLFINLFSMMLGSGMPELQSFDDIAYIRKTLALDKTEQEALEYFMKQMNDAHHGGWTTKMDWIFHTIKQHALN
In words: PI3K scintillation proximity kinase assay, alpha isoform. The class given is biochemical. The procedure: as §1, §2, §3
A general note: Scintillation proximity formats need no separation of bound from free tracer.

For assay [3], the target named is T3, PI3 kinase isoform delta (Homo sapiens, UniProt O00329).
T3 construct: made in house
T3 sequence (O00329 1-1044): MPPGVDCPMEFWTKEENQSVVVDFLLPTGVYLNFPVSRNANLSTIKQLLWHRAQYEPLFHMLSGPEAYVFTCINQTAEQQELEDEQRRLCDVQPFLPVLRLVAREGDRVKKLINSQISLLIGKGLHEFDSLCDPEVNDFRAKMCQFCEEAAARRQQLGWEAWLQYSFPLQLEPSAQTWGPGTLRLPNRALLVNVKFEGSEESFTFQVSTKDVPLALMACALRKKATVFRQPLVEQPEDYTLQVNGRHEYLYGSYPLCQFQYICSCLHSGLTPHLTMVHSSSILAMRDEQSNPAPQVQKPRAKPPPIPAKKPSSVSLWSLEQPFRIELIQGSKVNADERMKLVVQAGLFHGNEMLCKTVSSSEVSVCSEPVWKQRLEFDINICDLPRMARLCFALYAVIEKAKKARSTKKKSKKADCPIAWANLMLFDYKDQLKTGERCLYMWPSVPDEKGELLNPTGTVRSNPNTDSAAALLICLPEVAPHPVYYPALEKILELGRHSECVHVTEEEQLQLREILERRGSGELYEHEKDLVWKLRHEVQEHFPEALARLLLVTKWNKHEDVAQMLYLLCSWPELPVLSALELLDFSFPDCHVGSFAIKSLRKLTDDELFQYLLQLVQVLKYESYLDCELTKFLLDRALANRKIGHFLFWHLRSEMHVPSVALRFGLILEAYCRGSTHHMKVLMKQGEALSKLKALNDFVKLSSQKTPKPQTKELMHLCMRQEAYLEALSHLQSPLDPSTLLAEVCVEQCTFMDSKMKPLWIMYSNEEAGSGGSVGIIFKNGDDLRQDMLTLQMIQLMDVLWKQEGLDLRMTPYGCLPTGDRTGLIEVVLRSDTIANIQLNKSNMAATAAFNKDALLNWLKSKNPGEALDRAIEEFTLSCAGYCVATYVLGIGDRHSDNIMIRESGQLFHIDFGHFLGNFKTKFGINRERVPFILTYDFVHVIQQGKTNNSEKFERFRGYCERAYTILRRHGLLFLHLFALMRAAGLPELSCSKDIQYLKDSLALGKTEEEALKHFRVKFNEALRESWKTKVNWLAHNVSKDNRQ
In words: PI3K scintillation proximity kinase assay, delta isoform. The class given is biochemical. The procedure:
as §1, §2, §3

Assay [4] has as its target T4, PI3 kinase isoform beta (Homo sapiens, UniProt P42338).
T4 construct: made in house
In words: PI3K scintillation proximity kinase assay, beta isoform. The class given is biochemical. The protocol: as §1, §2, §3

For assay [5], the system named is pSer473-Akt in A2780 cells. In words: pSer473 Akt assay to monitor PI3K pathway in A2780 cells (MSD). Type of assay: cell-based. Particulars: Homo sapiens; A2780 cells; read-out: A2780 pAKT 473 EC50. The gist of the method:
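EC50 is derived from percent inhibition of Akt Ser473 phosphorylation, normalised to total Akt and compared with DMSO-only wells, read by MSD immunoassay. Lysates came from A2780 cells plated overnight at 15,000/well and exposed to compound for one hour at 37 °C.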

In assay [6] the test system is subcutaneous A2780 ovarian xenograft tumors. In words: A2780 human ovarian xenograft model in nude mice. Type of assay: in vivo. Conditions: 30 mg/kg daily p.o., day 6, p<0.001 vs vehicle (ANOVA). The procedure: Female nude mice (6-8 weeks of age; Charles River) were implanted subcutaneously with A2780 (5×10^6 cells/mouse in 0.1 ml HBSS) cells into the right flank. […] Tumor volumes were measured (SE is the standard error of the mean).
Tumors from mice treated with vehicle were also harvested as controls.
Background: In xenograft studies the graft and the host belong to different species.

The target in assay [7] is PI3 K Alpha (Homo sapiens, UniProt P42336). In words: PI3 kinase phosphorylation assays (homogenous solution phase, one step solid phase, ATP depletion/KinaseGlo). Type of assay: biochemical. Conditions: read-out: PI3K Alpha IC50. For orientation: Kinase-Glo measures the ATP left after a reaction by luminescence.
Chain of PI3 K Alpha (P42336 whole entry): as the sequence (P42336 whole entry, canonical isoform) above
Chain of PI3 K Alpha (P27986 whole entry partner): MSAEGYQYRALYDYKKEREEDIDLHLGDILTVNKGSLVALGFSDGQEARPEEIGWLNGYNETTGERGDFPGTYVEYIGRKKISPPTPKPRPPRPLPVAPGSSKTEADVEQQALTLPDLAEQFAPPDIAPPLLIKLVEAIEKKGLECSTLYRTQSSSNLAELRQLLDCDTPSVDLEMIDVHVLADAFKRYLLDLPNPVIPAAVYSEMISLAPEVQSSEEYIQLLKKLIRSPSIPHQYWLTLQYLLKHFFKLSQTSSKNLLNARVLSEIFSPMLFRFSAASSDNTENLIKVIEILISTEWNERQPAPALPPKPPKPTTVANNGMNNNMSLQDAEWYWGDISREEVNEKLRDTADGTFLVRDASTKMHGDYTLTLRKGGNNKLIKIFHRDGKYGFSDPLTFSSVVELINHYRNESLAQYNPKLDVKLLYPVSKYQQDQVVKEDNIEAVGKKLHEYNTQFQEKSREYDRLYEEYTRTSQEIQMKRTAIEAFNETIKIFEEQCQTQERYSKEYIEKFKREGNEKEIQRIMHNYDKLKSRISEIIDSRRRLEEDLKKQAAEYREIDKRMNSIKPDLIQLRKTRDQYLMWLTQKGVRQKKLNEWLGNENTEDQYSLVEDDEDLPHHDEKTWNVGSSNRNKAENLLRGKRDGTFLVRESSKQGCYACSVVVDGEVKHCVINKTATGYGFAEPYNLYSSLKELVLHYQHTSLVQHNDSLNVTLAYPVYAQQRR
The test system of assay [8] is A2780 cells. In words: Viability assay in A2780 (Cell Titer Glo). Conditions: Homo sapiens; A2780 cells; read-out: A2780 Cell prolif. EC50. The class given is cell-based, human. The method in brief: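 EC50 values come from Cell Titer Glo luminescence after 72 hrs of compound exposure at 37° C, run in duplicate. A2780 cells were plated at 1,000 per well in DMEM with 10% FBS and dosed with 3-fold serial dilutions.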

T4 sequence (P42338 whole entry, canonical isoform): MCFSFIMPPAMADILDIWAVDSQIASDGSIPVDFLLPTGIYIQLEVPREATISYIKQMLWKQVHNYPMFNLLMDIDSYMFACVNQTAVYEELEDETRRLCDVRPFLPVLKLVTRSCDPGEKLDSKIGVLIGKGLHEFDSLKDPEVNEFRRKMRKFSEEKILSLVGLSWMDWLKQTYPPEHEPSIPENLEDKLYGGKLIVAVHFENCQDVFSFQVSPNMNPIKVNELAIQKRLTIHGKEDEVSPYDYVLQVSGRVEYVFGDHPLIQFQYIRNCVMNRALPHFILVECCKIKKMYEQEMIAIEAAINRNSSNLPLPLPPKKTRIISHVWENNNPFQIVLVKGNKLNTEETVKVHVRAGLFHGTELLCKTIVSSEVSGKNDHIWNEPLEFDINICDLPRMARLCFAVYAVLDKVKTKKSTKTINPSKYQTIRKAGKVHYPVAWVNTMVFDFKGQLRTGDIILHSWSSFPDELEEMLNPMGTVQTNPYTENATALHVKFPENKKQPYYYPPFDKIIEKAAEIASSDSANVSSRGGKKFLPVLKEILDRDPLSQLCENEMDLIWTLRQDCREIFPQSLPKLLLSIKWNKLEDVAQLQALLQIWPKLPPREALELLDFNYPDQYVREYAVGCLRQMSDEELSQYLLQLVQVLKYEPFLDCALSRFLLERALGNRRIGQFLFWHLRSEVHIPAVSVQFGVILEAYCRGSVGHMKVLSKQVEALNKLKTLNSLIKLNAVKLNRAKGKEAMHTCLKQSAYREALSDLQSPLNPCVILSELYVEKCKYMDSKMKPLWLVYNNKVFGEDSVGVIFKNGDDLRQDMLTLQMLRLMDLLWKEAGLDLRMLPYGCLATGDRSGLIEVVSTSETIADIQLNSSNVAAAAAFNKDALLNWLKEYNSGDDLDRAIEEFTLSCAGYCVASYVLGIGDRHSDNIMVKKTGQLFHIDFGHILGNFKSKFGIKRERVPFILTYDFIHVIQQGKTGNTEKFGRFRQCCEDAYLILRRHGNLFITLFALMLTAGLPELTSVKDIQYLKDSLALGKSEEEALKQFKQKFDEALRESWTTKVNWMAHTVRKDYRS
T1 sequence (P48736 38-1102): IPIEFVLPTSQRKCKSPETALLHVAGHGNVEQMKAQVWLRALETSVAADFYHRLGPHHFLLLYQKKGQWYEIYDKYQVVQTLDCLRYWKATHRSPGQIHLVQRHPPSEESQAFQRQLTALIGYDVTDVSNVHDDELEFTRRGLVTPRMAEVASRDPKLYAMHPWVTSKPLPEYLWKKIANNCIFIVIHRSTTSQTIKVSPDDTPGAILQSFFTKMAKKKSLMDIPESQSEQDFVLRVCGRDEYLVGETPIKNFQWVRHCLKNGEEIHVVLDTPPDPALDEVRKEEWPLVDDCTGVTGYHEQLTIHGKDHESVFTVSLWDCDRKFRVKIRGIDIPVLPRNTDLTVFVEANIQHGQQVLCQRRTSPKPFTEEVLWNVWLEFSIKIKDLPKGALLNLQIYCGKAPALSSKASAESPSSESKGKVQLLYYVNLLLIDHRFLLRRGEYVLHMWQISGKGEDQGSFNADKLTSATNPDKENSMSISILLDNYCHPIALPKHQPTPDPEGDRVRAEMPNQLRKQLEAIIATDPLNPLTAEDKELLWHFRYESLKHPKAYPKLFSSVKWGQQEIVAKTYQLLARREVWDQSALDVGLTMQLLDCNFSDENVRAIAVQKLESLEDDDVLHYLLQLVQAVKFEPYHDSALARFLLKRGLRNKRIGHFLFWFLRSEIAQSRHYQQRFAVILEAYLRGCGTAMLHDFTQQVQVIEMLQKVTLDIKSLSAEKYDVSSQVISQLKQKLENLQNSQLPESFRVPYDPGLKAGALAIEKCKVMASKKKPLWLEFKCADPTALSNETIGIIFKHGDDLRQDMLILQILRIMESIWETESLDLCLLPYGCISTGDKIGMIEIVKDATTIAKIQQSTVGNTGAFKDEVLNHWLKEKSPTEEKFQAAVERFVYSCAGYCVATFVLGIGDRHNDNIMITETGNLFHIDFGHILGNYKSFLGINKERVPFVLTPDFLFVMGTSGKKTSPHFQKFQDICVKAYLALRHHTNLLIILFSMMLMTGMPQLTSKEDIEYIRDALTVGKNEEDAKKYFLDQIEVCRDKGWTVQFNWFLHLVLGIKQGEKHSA

As for `CCn1nnc(CCNC(=O)Nc2cn3cc(-c4cnc(N)c(C(F)(F)F)c4)ccc3n2)n1` [Example 3-1, 1-[6-(6-Amino-5-trifluoromethyl-pyridin-3-yl)-imidazo[1,2-a]pyridin-2-yl]-3-[2-(2-ethyl-2H-tetrazol-5-yl)-ethyl]-urea], the Ki in assay [1], in assay [2], in assay [3] and in assay [4] was under 1000 nM in each case.
On to `CC(C)n1nnc(CCNC(=O)Nc2cn3cc(-c4cnc(N)c(C(F)(F)F)c4)ccc3n2)n1` [Example 3-2, 1-[6-(6-Amino-5-trifluoromethyl-py-ridin-3-yl)-imidazo[1,2-a]pyridin-2-yl]-3-[2-(2-isopropyl-2H-tetrazol-5-yl)-ethyl]-urea], for which the Ki in assay [1], in assay [2], in assay [3] and in assay [4] was under 1000 nM throughout.
With `CC(=O)Nc1cn2cc(-c3cnc(N)c(OC(C)C(F)(F)F)n3)ccc2n1` (stereo not shown) [Example 57, N-(6-(5-amino-6-(1,1,1-trifluoropropan-2-yloxy)pyrazin-2-yl)imidazo[1,2-a]pyridin-2-yl)acetamide], the EC50 in assay [5] is under 1000 nM. The compound also came in with a tumor growth inhibition in assay [6] of 79%.
Regarding `Nc1ncc(-c2ccc3nc(NC(=O)NCCn4nnc(C5CC5)n4)cn3c2)cc1C(F)(F)F` [Example 3-5, 1-[6-(6-Amino-5-trifluoromethyl-py-ridin-3-yl)-imidazo[1,2-a]pyridin-2-yl]-3-[2-(5-cyclopropyl-tetrazol-2-yl)-ethyl]-urea], the Ki in assay [1], in assay [2], in assay [3] and in assay [4] was under 1000 nM each time.
Take `CC(C)n1nnc(CCNC(=O)Nc2cn3cc(-c4ccc(N)nc4)ccc3n2)n1` [Example 3-3, 1-[6-(6-Amino-pyridin-3-yl)-imidazo[1,2-a]pyridin-2-yl]-3-[2-(2-isopropyl-2H-tetrazol-5-yl)-ethyl]-urea]: the Ki was under 1000 nM in assay [1], under 10000 nM in assay [2], under 1000 nM in assay [3] and under 1000 nM in assay [4].
With `CCc1nnn(CCNC(=O)Nc2cn3cc(-c4cnc(N)c(C(F)(F)F)c4)ccc3n2)n1` [Example 3-4, 1-[6-(6-Amino-5-trifluoromethyl-py-ridin-3-yl)-imidazo[1,2-a]pyridin-2-yl]-3-[2-(5-ethyl-tetrazol-2-yl)-ethyl]-urea], the Ki in assay [1], in assay [2], in assay [3] and in assay [4] was under 1000 nM throughout.
On to `Nc1ncc(-c2ccc3nc(NC(=O)CCO)cn3c2)cc1C(F)(F)F` [Example 205, N-(6-(6-amino-5-(trifluoromethyl)pyridin-3-yl)imidazo[1,2-a]pyridin-2-yl)-3-hydroxypropanamide], for which, in assay [7], the IC50 is under 1000 nM. In addition, the values for the EC50 in assay [5] and in assay [8] were under 1000 nM and under 10000 nM, respectively.
With `Nc1ncc(-c2ccc3nc(NC(=O)c4ccc(F)cc4)cn3c2)cc1C(F)(F)F` [Example 78, N-(6-(6-amino-5-(trifluoromethyl)pyridin-3-yl)imidazo[1,2-a]pyridin-2-yl)-4-fluorobenzamide], in assay [7], the IC50 is under 1000 nM. Also, the EC50 in assay [5] and in assay [8] was under 1000 nM in each case.
On to `Nc1ncc(-c2ccc3nc(NC(=O)CCCN4CCCCC4)cn3n2)cc1C(F)(F)F` [Example 71, N-(6-(6-amino-5-(trifluoromethyl)pyridin-3-yl)imidazo[1,2-b]pyridazin-2-yl)-4-(piperidin-1-yl)butanamide], for which the half-maximal inhibitory concentration (IC50) in assay [7] was under 1000 nM. Also, the EC50 in assay [5] and in assay [8] was under 1000 nM each time.

Broadly, the Ki is a dissociation constant, usually derived from enzyme kinetics or from competition with a known ligand. Lower therefore signals a stronger hold on the target. As a reminder, the EC50 is the concentration at which the effect is half-maximal. As usually defined, the IC50 is the point on the concentration scale where inhibition reaches its midpoint.
